Results taken from patent publication US20020068367A1, “Linker and method for solid phase combinatorial synthesis” (priority 2000, published 2002).
Where “and” joins values, the source holds several entries; their conditions need not be identical. Equal entries are not always repeated.

Target: T1, fluorescein-streptavidin (Streptomyces avidinii, UniProt P22629)
T1 construct: purchased Calbiochem-Novabiochem Corp., La Jolla, Calif; 189734
Experiment: Fluorescence emission standard curve, streptavidin-fluorescein (evaluation of linker 3)
Conditions: for Fluorescence emission (standard curve): replicates
Source text: FIG. 8 is a plot of data from Table 8, derived from evaluation of linker 3;

T1 sequence (P22629 25-183): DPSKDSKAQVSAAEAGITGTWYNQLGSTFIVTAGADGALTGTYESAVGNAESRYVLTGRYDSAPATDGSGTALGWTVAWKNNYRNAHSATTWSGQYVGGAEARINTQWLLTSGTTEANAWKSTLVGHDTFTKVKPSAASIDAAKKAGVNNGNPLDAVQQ

In the case of `O=C(CCCCCNC(=O)CCCCCNC(=O)CCCCC1SCC2NC(=O)NC21)NCCCCCNC(=O)CCCCCNC(=O)CCCCC1SCC2NC(=O)NC21` (stereo not shown) [Linker 3], the “Fluorescence emission (standard curve), mean of Columns 1-3” value ([ST/FL] 7.4 pmol) is reported as 150.37, the “Fluorescence emission (standard curve), sum of Columns 1-2” value (“Fluorescence emission … of Columns 1-2” below) ([ST/FL] 7.4 pmol) is reported as 283.8 and the “Fluorescence emission (standard curve), sum of Columns 1-3” value ([ST/FL] 7.4 pmol) is reported as 451.1. For the same molecule, the “Fluorescence emission (standard curve)” value ([ST/FL] 7.4 pmol) was 112.81 and 170.99 and 167.3, the “Fluorescence emission (standard curve), mean of Columns 1-3” value ([ST/FL] 11.0 pmol) was 245.76 and the “Fluorescence emission … of Columns 1-2” value ([ST/FL] 11.0 pmol) was 498.27. The “Fluorescence emission (standard curve), sum of Columns 1-3” value ([ST/FL] 11.0 pmol) was 737.28, the “Fluorescence emission (standard curve)” value ([ST/FL] 11.0 pmol) was 270.54 and 227.73 and 239.01 and the “Fluorescence emission (standard curve), mean of Columns 1-3” value ([ST/FL] 15.0 pmol) was 281.62. For the same molecule, the “Fluorescence emission … of Columns 1-2” value ([ST/FL] 15.0 pmol) was 566.42, the “Fluorescence emission (standard curve), sum of Columns 1-3” value ([ST/FL] 15.0 pmol) was 844.85 and the “Fluorescence emission (standard curve)” value ([ST/FL] 15.0 pmol) was 307.82 and 258.6 and 278.43. For the same molecule, the “Fluorescence emission (standard curve), mean of Columns 1-3” value ([ST/FL] 18.0 pmol) was 311.00, the “Fluorescence emission … of Columns 1-2” value ([ST/FL] 18.0 pmol) was 633.01 and the “Fluorescence emission (standard curve), sum of Columns 1-3” value ([ST/FL] 18.0 pmol) was 933.0. The “Fluorescence emission (standard curve)” value ([ST/FL] 18.0 pmol) was 361.66 and 271.35 and 299.99, the “Fluorescence emission (standard curve), mean of Columns 1-3” value ([ST/FL] 22.0 pmol) was 350.48 and the “Fluorescence emission … of Columns 1-2” value ([ST/FL] 22.0 pmol) was 723.72. The “Fluorescence emission (standard curve), sum of Columns 1-3” value ([ST/FL] 22.0 pmol) was 1051.4, the “Fluorescence emission (standard curve)” value ([ST/FL] 22.0 pmol) was 363.91 and 359.81 and 327.71 and the “Fluorescence emission (standard curve), mean of Columns 1-3” value ([ST/FL] 26.0 pmol) was 461.85. The “Fluorescence emission … of Columns 1-2” value ([ST/FL] 26.0 pmol) was 944.08, the “Fluorescence emission (standard curve), sum of Columns 1-3” value ([ST/FL] 26.0 pmol) was 1385.6 and the “Fluorescence emission (standard curve)” value ([ST/FL] 26.0 pmol) was 496.71 and 447.37 and 441.48. The “Fluorescence emission (standard curve), mean of Columns 1-3” value ([ST/FL] 29.0 pmol) was 472.31, the “Fluorescence emission … of Columns 1-2” value ([ST/FL] 29.0 pmol) was 1001.7 and the “Fluorescence emission (standard curve), sum of Columns 1-3” value ([ST/FL] 29.0 pmol) was 1416.9. The “Fluorescence emission (standard curve)” value ([ST/FL] 29.0 pmol) was 495.93 and 505.81 and 415.18, the “Fluorescence emission (standard curve), mean of Columns 1-3” value ([ST/FL] 36.0 pmol) was 567.49 and the “Fluorescence emission … of Columns 1-2” value ([ST/FL] 36.0 pmol) was 1141.1. For the same molecule, the “Fluorescence emission (standard curve), sum of Columns 1-3” value ([ST/FL] 36.0 pmol) was 1702.5, the “Fluorescence emission (standard curve)” value ([ST/FL] 36.0 pmol) was 569.16 and 571.94 and 561.36 and the “Fluorescence emission (standard curve), mean of Columns 1-3” value ([ST/FL] 45.0 pmol) was 697.34. The “Fluorescence emission … of Columns 1-2” value ([ST/FL] 45.0 pmol) was 1374.6, the “Fluorescence emission (standard curve), sum of Columns 1-3” value ([ST/FL] 45.0 pmol) was 2092.0 and the “Fluorescence emission (standard curve)” value ([ST/FL] 45.0 pmol) was 688.65 and 685.98 and 717.4. For the same molecule, the “Fluorescence emission (standard curve), mean of Columns 1-3” value ([ST/FL] 60.0 pmol) was 847.26, the “Fluorescence emission … of Columns 1-2” value ([ST/FL] 60.0 pmol) was 1651.9 and the “Fluorescence emission (standard curve), sum of Columns 1-3” value ([ST/FL] 60.0 pmol) was 2541.8. For the same molecule, the “Fluorescence emission (standard curve)” value ([ST/FL] 60.0 pmol) was 837.57 and 816.34 and 889.88.
